Assay results taken from patent US10039779B2, “Combination formulation of two antiviral compounds” (priority 2013, dated 2018).
In brackets after ≈: the same amount, converted by molar mass.

Key:
Assay type in all cases: physicochemical
[1] = Aqueous solubility with 0.1% w/w surfactants and polymers; dissolution behavior of forms; conditions: for solubility: thermodynamic from solid
Experimental: Excess solid was added to aqueous buffered solutions; samples were withdrawn at predetermined intervals (2, 5, 8, 10, 15, 20, 30, 45, 60 minutes, and 24 hours), filtered through regenerated cellulose filters, and diluted for concentration measurement by the HPLC-UV method.

[2] = pH-solubility profile and solubility in simulated intestinal media; conditions: for solubility at 48 h: thermodynamic from solid
Experimental: Excess solid ledipasvir was added to a range of pH-adjusted aqueous solutions (titrated with HCl or NaOH) and stirred for 48 hours at room temperature. The suspensions were then filtered through regenerated cellulose syringe filters. The pH value of the supernatant was measured, and the supernatant was diluted as appropriate with 50:50 H2O+0.1% TFA:ACN and assayed for ledipasvir content by the HPLC-UV method.
Solubility of ledipasvir amorphous free base was assessed in three types of simulated intestinal fluids at pH 6.5 or pH 5.0; and simulated intestinal bile salt and lecithin mixture (SIBLM), pH 6.4. Excess solid ledipasvir was added to the respective SIFs and stirred for 48 hours at room temperature. The resulting suspensions were then filtered through regenerated cellulose syringe filters. The supernatant was diluted as appropriate with 50:50 H2O+0.1% TFA:ACN and assayed for ledipasvir content by the HPLC-UV method.

[3] = Excipient and organic solvent solubility; conditions: thermodynamic from solid
Experimental: Solubility of ledipasvir amorphous free base and ledipasvir crystalline D-tartrate was measured in a wide range of pharmaceutically acceptable solvents, including cosolvents, surfactants, fatty acids, triglycerides, or blends thereof. Material was weighed into scintillation vials and stirred for up to 48 hours at room temperature. In many cases, solubility was higher than the amount of solid used in the sample, thus many results are reported as ‘greater than’ or ‘greater than or equal to’ if the concentration was not quantitatively determined by HPLC-UV.

Compound: COC(=O)N[C@H](C(=O)N1CC2(CC2)C[C@H]1c1ncc(-c2ccc3c(c2)C(F)(F)c2cc(-c4ccc5nc([C@@H]6[C@H]7CC[C@H](C7)N6C(=O)[C@@H](NC(=O)OC)C(C)C)[nH]c5c4)ccc2-3)[nH]1)C(C)C [Ledipasvir amorphous free base]
- dissolution behavior relative to other ledipasvir forms ([1]; aqueous buffered solutions): faster than that of the crystalline free base and acetone solvate forms
- solubility ([1]; aqueous citrate buffer with excipient, pH 2, aqueous with cosolvent or surfactant or cyclodextrin, 0.1% w/w PVP (povidone), pH 2): 5470 µg/mL (≈ 6150 µM)
- solubility ([1]; aqueous citrate buffer with excipient, pH 2, aqueous with cosolvent or surfactant or cyclodextrin, 0.1% w/w PVP/VA (copovidone), pH 2): 6730 µg/mL (≈ 7570 µM)
- solubility ([1]; aqueous citrate buffer with excipient, pH 2, aqueous with cosolvent or surfactant or cyclodextrin, 0.1% w/w Sodium lauryl sulfate, pH 2): 50 µg/mL (≈ 56.2 µM)
- solubility ([1]; aqueous citrate buffer with excipient, pH 5, aqueous with cosolvent or surfactant or cyclodextrin, 0.1% w/w PVP (povidone), pH 5): 0.4 µg/mL (≈ 0.45 µM)
- solubility ([1]; aqueous citrate buffer with excipient, pH 5, aqueous with cosolvent or surfactant or cyclodextrin, 0.1% w/w PVP/VA (copovidone), pH 5): 1 µg/mL (≈ 1.12 µM)
- solubility ([1]; aqueous citrate buffer with excipient, pH 5, aqueous with cosolvent or surfactant or cyclodextrin, 0.1% w/w Sodium lauryl sulfate, pH 5): 243 µg/mL (≈ 273 µM)
- solubility ([1]; aqueous citrate buffer, no excipient, pH 2, aqueous buffer, pH 2, room temperature): 4940 µg/mL (≈ 5560 µM)
- solubility ([1]; aqueous citrate buffer, no excipient, pH 5, aqueous buffer, pH 5, room temperature): 0.1 µg/mL (≈ 0.112 µM)
- solubility ([1]; pH 2, aqueous with cosolvent or surfactant or cyclodextrin, 0.1% w/w Cremaphor EL, pH 2): 9110 µg/mL (≈ 10200 µM)
- solubility ([1]; pH 2, aqueous with cosolvent or surfactant or cyclodextrin, 0.1% w/w HPC (hydroxypropylcellulose), pH 2): 4670 µg/mL (≈ 5250 µM)
- solubility ([1]; pH 2, aqueous with cosolvent or surfactant or cyclodextrin, 0.1% w/w HPMC (hydroxymethylcellulose), pH 2): 5270 µg/mL (≈ 5930 µM)
- solubility ([1]; pH 2, aqueous with cosolvent or surfactant or cyclodextrin, 0.1% w/w Labrasol, pH 2): 7440 µg/mL (≈ 8370 µM)
- solubility ([1]; pH 2, aqueous with cosolvent or surfactant or cyclodextrin, 0.1% w/w Poloxamer 188, pH 2): 7190 µg/mL (≈ 8090 µM)
- solubility ([1]; pH 2, aqueous with cosolvent or surfactant or cyclodextrin, 0.1% w/w Polysorbate 80, pH 2): 9270 µg/mL (≈ 10400 µM)
- solubility ([1]; pH 5, aqueous with cosolvent or surfactant or cyclodextrin, 0.1% w/w Cremaphor EL, pH 5): 69.9 µg/mL (≈ 78.6 µM)
- solubility ([1]; pH 5, aqueous with cosolvent or surfactant or cyclodextrin, 0.1% w/w HPC (hydroxypropylcellulose), pH 5): 0.1 µg/mL (≈ 0.112 µM)
- solubility ([1]; pH 5, aqueous with cosolvent or surfactant or cyclodextrin, 0.1% w/w HPMC (hydroxymethylcellulose), pH 5): 0.3 µg/mL (≈ 0.337 µM)
- solubility ([1]; pH 5, aqueous with cosolvent or surfactant or cyclodextrin, 0.1% w/w Poloxamer 188, pH 5): 0.5 µg/mL (≈ 0.562 µM)
- solubility ([1]; pH 5, aqueous with cosolvent or surfactant or cyclodextrin, 0.1% w/w Polysorbate 80, pH 5): 62.4 µg/mL (≈ 70.2 µM)
- solubility ([2]; Aqueous, pH 1.6 (HCl), room temperature): 6855 µg/mL (≈ 7710 µM)
- solubility ([2]; Aqueous, pH 2.3 (HCl), room temperature): 1096 µg/mL (≈ 1230 µM)
- solubility at 48 h ([2]; FaSSIF, pH 6.5, fassif, FaSSIF pH = 6.5, room temperature): 25 µg/mL (≈ 28.1 µM)
- solubility at 48 h ([2]; FeSSIF, pH 5, fessif, FeSSIF pH = 5.0, room temperature): 230 µg/mL (≈ 259 µM)
- solubility at 48 h ([2]; SIBLM (simulated intestinal bile salt and lecithin mixture), pH 6.4, fassgf or other biorelevant, SIBLM pH = 6.4, room temperature): 232 µg/mL
- intrinsic solubility (S0) ([2]; aqueous, neutral form (pH>5), room temperature): approximately 0.04 μg/mL
- solubility at 48 h ([2]; pH-adjusted aqueous solution (HCl), pH 1.6, aqueous buffer, Aqueous, pH 1.6 (HCl), room temperature): ~7000 µg/mL (≈ 7870 µM)
- solubility at 48 h ([2]; pH-adjusted aqueous solution (HCl), pH 2.3, aqueous buffer, Aqueous, pH 2.3 (HCl), room temperature): 1000 µg/mL (≈ 1120 µM)
- solubility at 48 h ([2]; pH-adjusted aqueous solution, pH 3.1, aqueous buffer, Aqueous, pH 3.1 (HCl), room temperature): 13.2 µg/mL (≈ 14.8 µM)
- solubility at 48 h ([2]; pH-adjusted aqueous solution, pH 4.1, aqueous buffer, Aqueous, pH 4.1 (HCl), room temperature): 0.11 µg/mL (≈ 0.124 µM)
- solubility at 48 h ([2]; pH-adjusted aqueous solution, pH 5.5, aqueous buffer, Aqueous, pH 5.5 (HCl), room temperature): 0.03 µg/mL (≈ 0.0337 µM)
- solubility at 48 h ([2]; pH-adjusted aqueous solution, pH 6.2, water, Aqueous, pH 6.2 (unaltered), room temperature): 0.03 µg/mL (≈ 0.0337 µM)
- solubility at 48 h ([2]; pH-adjusted aqueous solution, pH 7.2, aqueous buffer, Aqueous, pH 7.2 (NaOH), room temperature): 0.01 µg/mL (≈ 0.0112 µM)
- increase of solubility in SIBLM over FaSSIF ([2]; room temperature): approximately 10 fold
- solubility ([3]; oil or lipid): > 500000 µg/mL
- solubility ([3]; pH 2.5, aqueous with cosolvent or surfactant or cyclodextrin): 25000 µg/mL (≈ 28100 µM)
